“And” between values parts separate entries of the source, which are not always exact repeats. Identical values can stand only once. “Also recorded” adds a separate entry of the source. Like-named read-outs stand apart in the source and are kept apart here.
What was measured:
Format in all cases: cell-based
lymphocyte cells [1] = assay: 4CmC-induced adenosine/inosine in human peripheral blood lymphocytes, HPLC (Example 1); details: for 4CmC response (adenosine plus inosine) in MHS group relative to MHN or normal groups: EHNA 0.1 mM
Method: FIG. 2 is a dose-response curve for 4-chloro-m-cresol (4CmC)-induced intracellular adenosine plus inosine in lymphocyte cells from malignant hyperthermia susceptible (MHS, n=11), not-susceptible (MHN, n=9), and normal (n=7) subjects. Lymphocyte cells were treated with 4CmC in the presence of an inhibitor of adenosine deaminase (EHNA, 0.1 mM). After purification, aliquot was analyzed for adenosine and inosine content using HPLC. Adenosine plus inosine values in the absence of 4CmC are plotted against X=0.02 mM to allow logarithmic display of the entire dose response curve. Adenosine plus inosine levels were normalized to reflect per 1 million cells. 4CmC responses at 1, 2, and 5 mM on MHS groups are about 4, 4, and 6 fold higher than the corresponding values in MI-1N or normal groups with values of 6×10^−5, 8×10^−5, and […], respectively. There were no overlaps between the MHS group and the MHN or normal groups.
Lymphocyte cells from MHS (n=11), MHN (n=9) and normal (n=7) subjects were suspended in normal HBSS plus 0.1% BSA and treated with adenosine deaminase inhibitor (EHNA, 0.1 mM). After 10 minutes of incubation at 37° C., cells were treated with HBSS, with and without the RyR1 agonist 4CmC (5 mM) and incubated at 37° C. for an additional 45 minutes. After termination and purification of the samples, aliquots (50 μl) were assayed in duplicate for adenosine and inosine content using HPLC. Concentrations are normalized to per 1 million cells. The sum of the adenosine plus inosine level is about 6-fold higher than corresponding values in normal and MHN cells.
Pilot studies were conducted using blood samples from human subjects in the following groups: Group 1: MHS subjects with positive CHCT and/or having a known MH associated mutation (n=11); Group 2: non-MH susceptible with negative CHCT results (MHN) (n=9), and Group 3: normal subjects who had not undergone CHCT and had no family history of MH (n=7).
Briefly, venous blood samples (20 ml) were drawn from patients using heparinized blood collection tubes. Peripheral blood lymphocyte cells were isolated from whole blood by the Ficoll-Hypaque centrifugation technique. Briefly, diluted anti-coagulated blood is layered over Ficoll-Hypaque and centrifuged. Mononuclear cells consisting of lymphocytes and some monocytes are recovered at the interface. The cells were washed with the Flanks' balanced salt solution (HBSS) buffer, re-suspended in the HBSS buffer, and treated with different concentration of 4CmC at 37° C. in the presence and/or absence of inhibitor of adenosine deaminase erythro-9-(2-hydroxy-3-nonyl)adenine (EHNA) for about 30 minutes. The cells were then purified by adding an equal volume of 6% HClO4 and centrifuged at 6000 rpm for 10 minutes. Aliquots of the supernatant were analyzed for adenosine and inosine content with HPLC using a Waters Separation Module (Model 2695) equipped with Waters Photodiode Array Detector and Empower software.

lymphocyte cells [2] = assay: 4CmC-induced adenosine in human lymphocyte / immortalized B cells (Example 3); details: for ADO level at maximum of 4CmC dose response, mean±SEM: 2 mM 4CmC, EHNA 0.1 mM
lymphocyte cells [3] = assay: 4CmC-induced adenosine in swine lymphocyte cells, nucleosides assay (Example 4); details: for EC50: Sus scrofa, Lymphocyte; for peak ADO level upon 4CmC stimulation, mean±SEM: near 1 mM 4CmC
Method: Isolation of lymphocytes from whole blood: Lymphocyte cells were isolated from whole blood by Ficoll-Hypaque density gradient centrifugation technique (see Boyum A., Scand. J. Clip. Lab. 97:77-89 (1968)). Isolated lymphocyte cells were dispensed into 3-volume normal Hanks' balanced salt solution (HBSS) and centrifuged (10 minutes at 1000 RPM). The pellet was re-suspended in HBSS to lyse contaminating erythrocytes and spun. The later step was repeated one more time. To maintain simplicity of the protocol for possible MH diagnostic purposes no further purification was attempted. Lymphocyte cells were then cultured in RPMI-1640 media supplemented with 10% fetal bovine serum, […] penicillin and 2 mM glutamine. Cell cultures were incubated at 37° C. in a humidified chamber with 5% CO2. All experiments were completed within 4 days after isolation of lymphocyte cells from whole blood samples.
Nucleosides Assay Protocol: Briefly, lymphocyte cells (1−2×10^6 cells/test) were suspended in HBSS with or without Ca^2+/Mg^2+ (as indicated for each experiment) plus 0.1% bovine serum albumin (BSA). Experiments were carried out in the presence of the adenosine deaminase inhibitor erythro-9-(2-hydroxy-3-nonyl) adenine-HCl ([…]) to prevent deamination of adenosine to inosine (Lorbar et al., J Mol Cell Cardiol 31: 401-12 (1999)) and incubated at 37° C. for 10 minutes followed by treatment with different 4CmC concentrations (0.05-10 mM). Further incubation at 37° C. for an additional 45 minutes was also carried out. Final volumes of the test tubes were adjusted to 0.2 ml using HBSS buffer. Termination of the cell activity and purification of samples was accomplished by addition of 0.1 ml 12% perchloric acid followed by centrifugation at 5000 RPM for 10 minutes. Aliquots of the supernatant (50 μl) were assayed for adenosine and inosine content using HPLC.
HPLC Conditions: The HPLC system consisted of a Waters Symmetry C18 column (4.6×250 mm) and mobile phase of 94% KH2PO4 (50 mM, pH 4.6) containing 1-heptanesulfonic acid (0.5 mM) and 6% acetonitrile. Under these conditions, retention times for inosine and adenosine were 4 and 7.3 min, respectively. Peak width of inosine and adenosine were 18 and 36 seconds, respectively. Eluting compounds were detected by their absorbance at 254 nm using a Waters photodiode array detector (model 996). Sample adenosine and inosine concentrations were obtained using a calibrated standard curve of concentrations vs. peak area.
Statistics: Sample nucleosides concentrations were normalized to represent per 1 million cells and presented as means±SEM. The t-test was applied to test for differences between agonist-induced nucleosides in lymphocyte cells from MHS and normal swine. A P<0.05 considered to indicate statistical significance.

Cc1cc(O)ccc1Cl [4CmC, 4-chloro-m-cresol]
4CmC response (adenosine plus inosine) in MHS group relative to MHN or normal groups (lymphocyte cells [1]; 1 mM 4CmC): about 4 fold
4CmC response (adenosine plus inosine) in MHS group relative to MHN or normal groups (lymphocyte cells [1]; 2 mM 4CmC): about 4 fold
stimulation of adenosine plus inosine formation in control and MHN samples (lymphocyte cells [1]; 5 mM 4CmC (maximum effective dose)): did not, or minimally stimulated
stimulation of nucleosides formation by 4CmC in MHS samples (lymphocyte cells [1]; 5 mM 4CmC, FIG. 3): ~6 fold
adenosine plus inosine level after 4CmC treatment, mean±SEM (lymphocyte cells [1]; 5 mM 4CmC, MHN group (n=9)): 5.4 ± 0.6 µM
adenosine plus inosine level after 4CmC treatment, mean±SEM (lymphocyte cells [1]; 5 mM 4CmC, MHS group (n=11)): 35.6 ± 3.1 µM
adenosine plus inosine level after 4CmC treatment, mean±SEM (lymphocyte cells [1]; 5 mM 4CmC, normal group (n=7)): 5.6 ± 1 µM
[Adenosine] μM Post 5 mM 4CmC (lymphocyte cells [1]; lymphocytes of single normal subjects, 5 mM 4CmC): 0.220 µM and 0.144 µM and 0.246 µM and 0.154 µM and 0.276 µM and 0.177 µM and 0.268 µM
4CmC concentration at which inosine release reaches saturation (lymphocyte cells [1]; without EHNA): about 5 mM
4CmC concentrations that stimulate inosine release dose-dependently (lymphocyte cells [1]; without EHNA): above 1 mM
effect of 4CmC on adenosine formation (lymphocyte cells [1]; without adenosine deaminase inhibitor): not affected
ADO level at maximum of 4CmC dose response, mean±SEM (lymphocyte cells [2]; MHS cells): 1.71 ± 0.13 µM
ADO level at maximum of 4CmC dose response, mean±SEM (lymphocyte cells [2]; normal cells): 0.61 ± 0.11 µM
4CmC-induced adenosine in MHS (CHCT-positive) versus normal / CHCT-negative lymphocyte cells (lymphocyte cells [2]; FIG. 5 and 6): significantly higher; also recorded: significantly greater
4CmC concentration at which ADO levels maximized (lymphocyte cells [2]; human lymphocytes): 2 mM
4CmC-induced ADO in lymphocyte cells from MHS swine versus normal swine (lymphocyte cells [3]): significantly greater; also recorded: significantly higher
4CmC-induced ADO, mean±SEM (lymphocyte cells [3]; 1 mM 4CmC, Ca2+/Mg2+-free HBSS, normal swine (n=6)): 0.244 ± 0.026 µM
basal plus 4CmC-induced ADO range (lymphocyte cells [3]; 1 mM 4CmC, MHS swine cells): 0.250 to 0.537 µM
4CmC-induced ADO, mean±SEM (lymphocyte cells [3]; 1 mM 4CmC, normal HBSS, normal swine (n=6)): 0.326 ± 0.023 µM
increase in ADO formation in the presence of extracellular Ca2+ (lymphocyte cells [3]; 1 mM 4CmC, normal swine): 25.2±5.1%
basal plus 4CmC-induced ADO range (lymphocyte cells [3]; 1 mM 4CmC, normal swine cells): 0.145 to 0.209 µM
4CmC-induced ADO, mean±SEM (lymphocyte cells [3]; 2 mM 4CmC, absence of extracellular Ca2+, normal swine): 0.167 ± 0.018 µM
4CmC-induced adenosine relative to basal adenosine level (lymphocyte cells [3]; 2 mM 4CmC, no FCCP, Ca2+/Mg2+ free HBSS, normal swine (n=5)): 5.8 fold
increase in 4CmC-induced ADO formation in the presence of extracellular Ca2+ (lymphocyte cells [3]; 2 mM 4CmC, normal swine): 41±3.3%
4CmC-induced ADO, mean±SEM (lymphocyte cells [3]; 2 mM 4CmC, presence of extracellular Ca2+, normal swine): 0.284 ± 0.023 µM
increase in sensitivity to 4CmC in the MHS cell population (lymphocyte cells [3]; MHS vs normal swine cells): ~60%
EC50 (lymphocyte cells [3]; read-out: estimated EC50 of 4CmC for ADO formation, MHS swine cells): 550 ± 60 µM
EC50 (lymphocyte cells [3]; read-out: estimated EC50 of 4CmC for ADO formation, normal swine cells): 340 ± 40 µM
peak ADO level upon 4CmC stimulation, mean±SEM (lymphocyte cells [3]; normal HBSS, MHS swine cells (n=7)): 0.389 ± 0.033 µM
peak ADO level upon 4CmC stimulation, mean±SEM (lymphocyte cells [3]; normal HBSS, normal swine cells (n=7)): 0.199 ± 0.005 µM
4CmC concentration at which ADO levels peaked (lymphocyte cells [3]; swine lymphocytes, normal HBSS): ~1 mM

Source: patent publication US8846330B2, “Methods and kits for the diagnosis of RyR1-related diseases” (The Henry M. Jackson Foundation for the Advancement of …, priority 2008, dated 2014)
